Test results reported in PubChem BioAssay AID1259411 (Chemical Carcinogenesis Research Information System (CCRIS), 2018).
Active and inactive are the calls of the source. How the calls were made is not given here.

Test system: rodent carcinogenicity bioassays, tumor incidence
Experiment: CCRIS carcinogenicity studies
Details: Dose: 0
Method in brief: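 NCI-built, expert-reviewed records of carcinogenicity and related test outcomes (mutagenicity, tumor promotion/inhibition) compiled from published and report sources, historical span 1985-2011, not updated.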

Measured: carcinogen call

O=[N+]([O-])c1cc2c3ccccc3ccc2c2ccccc12
active: Species: MOUSE, Strain/Sex: B6C3F1/MALE, Route: INTRAPERITONEAL, 400 NMOL IN 35 µL DMSO ON DAYS 1 (1/7 TOTAL DOSE), 8 (2/7 TOTAL DOSE), AND 15 (4/7 TOTAL DOSE) AFTER BIRTH (STUDY DUR, Tumor Site: Type of Lesion: LIVER: ADENOMA OR CARCINOMA, LUNG: TUMOR active; positive | Species: MOUSE, Strain/Sex: BLU:HA/FEMALE, Route: INTRAPERITONEAL, 38.5, 189 UG (TOTAL DOSE) GIVEN TO NEWBORN MICE IN 3 DOSES OF 1/7, 2/7 AND 4/7 OF THE TOTAL ON DAYS 1, 8 AND 15 RESPE, 38.5, 189 UG (TOTAL DOSE) GIVEN TO NEWBORN MICE IN 3 DOSES OF 1/7, 2/7 AND 4/7 OF THE TOTAL ON DAYS 1, 8 AND 15 RESPE, Tumor Site: Type of Lesion: LUNG: TUMORS active; positive | Species: MOUSE, Strain/Sex: BLU:HA/MALE, Route: INTRAPERITONEAL, 38.5, 189 UG (TOTAL DOSE) GIVEN TO NEWBORN MICE IN 3 DOSES OF 1/7, 2/7 AND 4/7 OF THE TOTAL ON DAYS 1, 8 AND 15 RESPE, 38.5, 189 UG (TOTAL DOSE) GIVEN TO NEWBORN MICE IN 3 DOSES OF 1/7, 2/7 AND 4/7 OF THE TOTAL ON DAYS 1, 8 AND 15 RESPE, Tumor Site: Type of Lesion: LUNG: TUMORS active; positive | Species: MOUSE, Strain/Sex: ICR/FEMALE, Route: INTRAPERITONEAL, 7.5, 15, 30 µL OF A 26.7 NMOL/UL DMSO SOLUTION ON 1,8, AND 15 D OF AGE RESPECTIVELY (TOTAL DOSE: 0; 1.4 UMOL) (STUDY, 7.5, 15, 30 µL OF A 26.7 NMOL/UL DMSO SOLUTION ON 1,8, AND 15 D OF AGE RESPECTIVELY (TOTAL DOSE: 0; 1.4 UMOL) (STUDY, Tumor Site: Type of Lesion: LUNG: ADENOMA active; positive | Species: MOUSE, Strain/Sex: ICR/FEMALE, Route: INTRAPERITONEAL, 7.7 UG TOTAL DOSE (1.1 UG/5 µL, 2.2 UG/10 µL, 4.4 UG/20 µL DMSO ON DAYS 1, 8 AND 15) ADMINISTERED TO NEWBORN ANIMALS, Tumor Site: Type of Lesion: LUNG: ADENOMA, ADENOCARCINOMA active; positive | Species: MOUSE, Strain/Sex: ICR/FEMALE, Route: INTRAPERITONEAL, 100 NMOL (TOTAL DOSE) ADMINISTERED IN 3 SUBDOSES OF 1/7, 2/7, AND 4/7 ON DAYS 1, 8 AND 15 OF LIFE, RESPECTIVELY (STUD, Tumor Site: Type of Lesion: LUNG: TUMORS active; positive | Species: MOUSE, Strain/Sex: ICR/MALE, Route: INTRAPERITONEAL, 7.5, 15, 30 µL OF A 26.7 NMOL/UL DMSO SOLUTION ON 1,8, AND 15 D OF AGE RESPECTIVELY (TOTAL DOSE: 0; 1.4 UMOL) (STUDY, 7.5, 15, 30 µL OF A 26.7 NMOL/UL DMSO SOLUTION ON 1,8, AND 15 D OF AGE RESPECTIVELY (TOTAL DOSE: 0; 1.4 UMOL) (STUDY, Tumor Site: Type of Lesion: LUNG: ADENOMA active; positive | Species: MOUSE, Strain/Sex: ICR/MALE, Route: INTRAPERITONEAL, 7.7 UG TOTAL DOSE (1.1 UG/5 µL, 2.2 UG/10 µL, 4.4 UG/20 µL DMSO ON DAYS 1, 8 AND 15) ADMINISTERED TO NEWBORN ANIMALS, Tumor Site: Type of Lesion: LUNG: ADENOMA, ADENOCARCINOMA active; positive | Species: MOUSE, Strain/Sex: ICR/MALE, Route: INTRAPERITONEAL, 100 NMOL (TOTAL DOSE) ADMINISTERED IN 3 SUBDOSES OF 1/7, 2/7, AND 4/7 ON DAYS 1, 8 AND 15 OF LIFE, RESPECTIVELY (STUD, Tumor Site: Type of Lesion: LUNG: TUMORS, LIVER: TUMORS active; positive | Species: MOUSE, Strain/Sex: SWISS/FEMALE, Route: INTRAPERITONEAL, 100, 700 NMOL (TOTAL DOSE) 1/7, 2/7 AND 4/7 ADMINISTERED ON DAYS 1, 8 AND 15 OF LIFE RESPECTIVELY (STUDY DURATION: 32, 100, 700 NMOL (TOTAL DOSE) 1/7, 2/7 AND 4/7 ADMINISTERED ON DAYS 1, 8 AND 15 OF LIFE RESPECTIVELY (STUDY DURATION: 32, Tumor Site: Type of Lesion: LUNG: TUMOR active; positive | Species: MOUSE, Strain/Sex: SWISS/FEMALE, Route: INTRAPERITONEAL, 100 NMOL (TOTAL DOSE) ADMINISTERED 1/7, 2/7 AND 4/7 ON DAY 1, 8 AND 15 RESPECTIVELY (STUDY DURATION: 32 WK), Tumor Site: Type of Lesion: LUNG: TUMOR active; positive | Species: MOUSE, Strain/Sex: SWISS/FEMALE, Route: INTRAPERITONEAL, 100 NMOL ON DAY 1 OF LIFE (STUDY DURATION: 32 WK), Tumor Site: Type of Lesion: LUNG: TUMOR, LIVER: TUMOR active; positive | Species: MOUSE, Strain/Sex: SWISS/MALE, Route: INTRAPERITONEAL, 100, 700 NMOL (TOTAL DOSE) 1/7, 2/7 AND 4/7 ADMINISTERED ON DAYS 1, 8 AND 15 OF LIFE RESPECTIVELY (STUDY DURATION: 32, 100, 700 NMOL (TOTAL DOSE) 1/7, 2/7 AND 4/7 ADMINISTERED ON DAYS 1, 8 AND 15 OF LIFE RESPECTIVELY (STUDY DURATION: 32, Tumor Site: Type of Lesion: LUNG: TUMOR, LIVER: TUMOR active; positive | Species: MOUSE, Strain/Sex: SWISS/MALE, Route: INTRAPERITONEAL, 100 NMOL (TOTAL DOSE) ADMINISTERED 1/7, 2/7 AND 4/7 ON DAY 1, 8 AND 15 RESPECTIVELY (STUDY DURATION: 32 WK), Tumor Site: Type of Lesion: LIVER: TUMOR, LUNG: TUMOR active; positive | Species: MOUSE, Strain/Sex: SWISS/MALE, Route: INTRAPERITONEAL, 100 NMOL ON DAY 1 OF LIFE (STUDY DURATION: 32 WK), Tumor Site: Type of Lesion: LUNG: TUMOR, LIVER: TUMOR active; positive | Species: RAT, Strain/Sex: CD-1/FEMALE, Route: INTRAPERITONEAL, 15, 30, 60, 150, 300 µL OF A 26.7 NMOL/UL SOLUTION ON 1, 8, 15, 22, AND 29 D OF AGE RESPECTIVELY (TOTAL DOSE: 0, 14.8, 15, 30, 60, 150, 300 µL OF A 26.7 NMOL/UL SOLUTION ON 1, 8, 15, 22, AND 29 D OF AGE RESPECTIVELY (TOTAL DOSE: 0, 14.8, Tumor Site: Type of Lesion: COLON: ADENOCARCINOMA, ADENOMA/DYSPLASIA active; positive | Species: RAT, Strain/Sex: CD-1/MALE, Route: INTRAPERITONEAL, 15, 30, 60, 150, 300 µL OF A 26.7 NMOL/UL DMSO SOLUTION ON 1, 8, 15, 22 AND 29 D OF AGE RESPECTIVELY (TOTAL DOSE: 0;, 15, 30, 60, 150, 300 µL OF A 26.7 NMOL/UL DMSO SOLUTION ON 1, 8, 15, 22 AND 29 D OF AGE RESPECTIVELY (TOTAL DOSE: 0;, Tumor Site: Type of Lesion: COLON: ADENOCARCINOMA, ADENOMA active; positive | Species: RAT, Strain/Sex: STRAIN-CD/ FEMALE, Route: INJECTION, 2.04 UMOL IN 0.1 ML DMSO INJECTED BENEATH EACH OF THREE LEFT THORACIC NIPPLES THEN ON THE NEXT DAY BENEATH EACH THE T, Tumor Site: Type of Lesion: MAMMARY GLAND: TUMOR active; positive | Species: RAT, Strain/Sex: STRAIN-CD/FEMALE, Route: INJECTION, 2.04 UMOL IN 100 µL DMSO INJECTED INTO 3 THORACIC MAMMARY GLANDS ON DAY 1 AND INTO 3 INQUINAL MAMMARY GLANDS ON DAY 2, Tumor Site: Type of Lesion: MAMMARY GLAND: FIBROADENOMA, ADENOCARCINOMA, SPINDLE CELL SARCOMA active; positive
